According to patent publication US20140057881A1, “Composition for the Treatment of Skin Conditions” (priority 2010, published 2014):
Structures can show the parent of a compound that is named as a salt.

Key:
Assay type in all cases: in vivo, human
Details in all cases: patient history before treatment with Example 1
[1] = Case 8: topical treatment of a child
[2] = Case 1: topical treatment of a person
Excerpt: A diagnosis of periorbital dermatitis with lichenification was made and treatment using the formulation of Example 1 commenced.

[3] = Case 7: topical treatment of a person
Excerpt: A person with several year history of an itchy rash on the dorsum of their right foot presented (see FIG. 7A). They had previously tried many creams including various antifungal treatments, antibiotics and steroids, Particularly, they had tried Kenacomb™ (Triamcinolone acetonide, nystatin, gramicidin, neomycin); Mometasone Furoate 0.1% (Elocon™); Terbinafine Hydrochloride 1.0% (Lamisil™); Clotrimazole (sold under the trade name Canestan™) and Mupirocin (2% w/w) (sold under the trade name Bactroban™). […] There were areas of broken skin with scattered scab formation.
A diagnosis of chronic dermatitis with lichenification was made and treatment commenced with the composition of Example 1.
In less than one week the rash had disappeared (FIG. 7B).

CCC(=O)OCC(=O)[C@@]1(OC(=O)CC)[C@@H](C)C[C@H]2[C@@H]3CCC4=CC(=O)C=C[C@]4(C)[C@@]3(F)[C@@H](O)C[C@@]21C [Betamethasone dipropionate 0.05%, Betamethasone dipropionate]
outcome of previously tried products [1]: no permanent improvement

CN(C/C=C/C#CC(C)(C)C)Cc1cccc2ccccc12 [Terbinafine Hydrochloride 1.0%, Terbinafine Hydrochloride]
outcome of previously used treatments [2]: no long term improvement
outcome of previously tried products [1]: no permanent improvement
outcome of previously tried treatments [3]: None of the treatments gave them any long term results

Clc1ccccc1C(c1ccccc1)(c1ccccc1)n1ccnc1 [Clotrimazole]
outcome of previously tried products [1]: no permanent improvement
outcome of previously tried treatments [3]: None of the treatments gave them any long term results

CCC(=O)O[C@]1(C(=O)COC(C)=O)CC[C@H]2[C@@H]3C[C@H](C)C4=CC(=O)C=C[C@]4(C)[C@H]3[C@@H](O)C[C@@]21C [Methylprednisolone aceponate]
outcome of previously tried products [1]: no permanent improvement

CC(=O)OCC(=O)[C@@]1(O)CC[C@H]2[C@@H]3CCC4=CC(=O)CC[C@]4(C)[C@H]3[C@@H](O)C[C@@]21C [Hydrocosrtisone acetate 1%, Hydrocosrtisone acetate]
outcome of previously used treatments [2]: no long term improvement
outcome of previously tried products [1]: no permanent improvement

C[C@@H]1C[C@H]2[C@@H]3CCC4=CC(=O)C=C[C@]4(C)[C@@]3(Cl)[C@@H](O)C[C@]2(C)[C@@]1(OC(=O)c1ccco1)C(=O)CCl [Mometasone Furoate 0.1%, Mometasone Furoate]
outcome of previously used treatments [2]: no long term improvement
outcome of previously tried treatments [3]: None of the treatments gave them any long term results

C/C(=C\C(=O)OCCCCCCCCC(=O)O)C[C@@H]1OC[C@H](C[C@@H]2O[C@H]2[C@@H](C)[C@H](C)O)[C@@H](O)[C@H]1O [Mupirocin (2% w/w), Mupirocin]
outcome of previously tried treatments [3]: None of the treatments gave them any long term results
